Like-named read-outs stand apart in the source and are kept apart here.
Target: HiBit-WIZ fusion protein (Homo sapiens, UniProt O95785+Q96SW2)
Assay: Quantification of WIZ protein levels in HiBit tag fusion protein assay (WIZ HiBit assay in 293T cells)
Type: cell-based
Parameters: Dmax: dose or concentration left out as unconfirmed
Conditions: for remaining activity at up to 25 µM: read-out: WIZ Amax; for DC50: WIZ HiBit assay in 293T cells, 10-point, 5-fold dose response, highest concentration 25 μM, about 18 hours, read-out: WIZ AC50
[1] = HEK-293T, 100 minus Amax, 293T cells, read-out: % degradation of WIZ (100-Amax)
[2] = HEK-293T, DMSO-normalized, curve-fitted percentage of WIZ-HiBit remaining at 25 uM, 293T cells

Sequence of HiBit-WIZ fusion protein (O95785 whole entry, the tested form may be a part): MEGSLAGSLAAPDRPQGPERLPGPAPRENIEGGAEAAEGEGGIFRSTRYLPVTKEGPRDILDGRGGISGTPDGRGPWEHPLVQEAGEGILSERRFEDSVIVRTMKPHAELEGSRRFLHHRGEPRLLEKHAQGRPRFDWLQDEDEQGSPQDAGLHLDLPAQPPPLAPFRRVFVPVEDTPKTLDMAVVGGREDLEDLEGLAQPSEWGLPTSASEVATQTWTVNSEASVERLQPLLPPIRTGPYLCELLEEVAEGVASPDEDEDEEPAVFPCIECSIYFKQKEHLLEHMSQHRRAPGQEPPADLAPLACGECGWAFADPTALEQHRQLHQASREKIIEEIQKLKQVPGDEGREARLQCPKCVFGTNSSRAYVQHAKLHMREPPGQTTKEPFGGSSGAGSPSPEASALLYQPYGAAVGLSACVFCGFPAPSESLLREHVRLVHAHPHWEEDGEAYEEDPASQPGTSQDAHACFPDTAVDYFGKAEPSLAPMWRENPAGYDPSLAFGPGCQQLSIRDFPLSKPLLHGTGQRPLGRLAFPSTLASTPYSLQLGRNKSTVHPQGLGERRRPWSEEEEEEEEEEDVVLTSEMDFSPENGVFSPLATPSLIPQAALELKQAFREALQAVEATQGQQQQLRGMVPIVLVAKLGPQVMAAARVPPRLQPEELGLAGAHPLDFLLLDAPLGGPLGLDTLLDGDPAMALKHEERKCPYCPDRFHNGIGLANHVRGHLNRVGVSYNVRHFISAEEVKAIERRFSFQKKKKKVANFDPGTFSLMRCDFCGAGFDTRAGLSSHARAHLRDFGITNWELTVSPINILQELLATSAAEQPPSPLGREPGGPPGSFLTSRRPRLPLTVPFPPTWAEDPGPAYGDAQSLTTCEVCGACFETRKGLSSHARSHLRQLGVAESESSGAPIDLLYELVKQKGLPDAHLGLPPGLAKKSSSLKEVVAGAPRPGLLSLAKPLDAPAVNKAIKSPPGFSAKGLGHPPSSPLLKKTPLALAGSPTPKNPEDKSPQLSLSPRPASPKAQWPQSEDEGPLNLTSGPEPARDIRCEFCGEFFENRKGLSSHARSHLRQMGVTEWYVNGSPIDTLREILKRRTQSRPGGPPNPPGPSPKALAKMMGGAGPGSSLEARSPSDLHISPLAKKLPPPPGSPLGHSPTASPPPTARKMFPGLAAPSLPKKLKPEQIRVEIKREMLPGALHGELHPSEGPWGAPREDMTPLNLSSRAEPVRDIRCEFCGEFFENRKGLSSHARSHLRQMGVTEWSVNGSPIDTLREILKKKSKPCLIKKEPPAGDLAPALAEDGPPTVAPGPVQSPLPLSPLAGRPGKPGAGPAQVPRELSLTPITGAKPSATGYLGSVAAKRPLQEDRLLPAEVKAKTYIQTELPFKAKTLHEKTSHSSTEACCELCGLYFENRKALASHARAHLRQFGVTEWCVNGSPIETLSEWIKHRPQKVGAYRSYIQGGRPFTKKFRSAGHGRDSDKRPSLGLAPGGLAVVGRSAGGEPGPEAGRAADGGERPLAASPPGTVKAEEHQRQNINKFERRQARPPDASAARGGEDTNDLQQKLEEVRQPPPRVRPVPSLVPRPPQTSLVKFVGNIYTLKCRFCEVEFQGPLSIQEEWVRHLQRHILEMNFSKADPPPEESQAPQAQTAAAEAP
Sequence of HiBit-WIZ fusion protein (Q96SW2 whole entry, the tested form may be a part): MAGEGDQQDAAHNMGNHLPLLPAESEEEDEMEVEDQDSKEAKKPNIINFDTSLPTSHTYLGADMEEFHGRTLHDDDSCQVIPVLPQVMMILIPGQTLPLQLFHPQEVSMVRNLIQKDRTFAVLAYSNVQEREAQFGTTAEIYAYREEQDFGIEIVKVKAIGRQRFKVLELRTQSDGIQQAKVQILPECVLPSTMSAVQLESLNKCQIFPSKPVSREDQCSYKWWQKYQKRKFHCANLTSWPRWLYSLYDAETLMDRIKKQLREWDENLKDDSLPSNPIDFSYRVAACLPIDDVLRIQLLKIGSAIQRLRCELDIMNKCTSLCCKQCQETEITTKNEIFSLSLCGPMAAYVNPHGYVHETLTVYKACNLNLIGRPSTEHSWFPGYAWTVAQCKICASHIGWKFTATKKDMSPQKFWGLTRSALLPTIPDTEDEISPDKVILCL
Sequence of HiBit-WIZ fusion protein (Q16531 whole entry partner, the tested form may be a part): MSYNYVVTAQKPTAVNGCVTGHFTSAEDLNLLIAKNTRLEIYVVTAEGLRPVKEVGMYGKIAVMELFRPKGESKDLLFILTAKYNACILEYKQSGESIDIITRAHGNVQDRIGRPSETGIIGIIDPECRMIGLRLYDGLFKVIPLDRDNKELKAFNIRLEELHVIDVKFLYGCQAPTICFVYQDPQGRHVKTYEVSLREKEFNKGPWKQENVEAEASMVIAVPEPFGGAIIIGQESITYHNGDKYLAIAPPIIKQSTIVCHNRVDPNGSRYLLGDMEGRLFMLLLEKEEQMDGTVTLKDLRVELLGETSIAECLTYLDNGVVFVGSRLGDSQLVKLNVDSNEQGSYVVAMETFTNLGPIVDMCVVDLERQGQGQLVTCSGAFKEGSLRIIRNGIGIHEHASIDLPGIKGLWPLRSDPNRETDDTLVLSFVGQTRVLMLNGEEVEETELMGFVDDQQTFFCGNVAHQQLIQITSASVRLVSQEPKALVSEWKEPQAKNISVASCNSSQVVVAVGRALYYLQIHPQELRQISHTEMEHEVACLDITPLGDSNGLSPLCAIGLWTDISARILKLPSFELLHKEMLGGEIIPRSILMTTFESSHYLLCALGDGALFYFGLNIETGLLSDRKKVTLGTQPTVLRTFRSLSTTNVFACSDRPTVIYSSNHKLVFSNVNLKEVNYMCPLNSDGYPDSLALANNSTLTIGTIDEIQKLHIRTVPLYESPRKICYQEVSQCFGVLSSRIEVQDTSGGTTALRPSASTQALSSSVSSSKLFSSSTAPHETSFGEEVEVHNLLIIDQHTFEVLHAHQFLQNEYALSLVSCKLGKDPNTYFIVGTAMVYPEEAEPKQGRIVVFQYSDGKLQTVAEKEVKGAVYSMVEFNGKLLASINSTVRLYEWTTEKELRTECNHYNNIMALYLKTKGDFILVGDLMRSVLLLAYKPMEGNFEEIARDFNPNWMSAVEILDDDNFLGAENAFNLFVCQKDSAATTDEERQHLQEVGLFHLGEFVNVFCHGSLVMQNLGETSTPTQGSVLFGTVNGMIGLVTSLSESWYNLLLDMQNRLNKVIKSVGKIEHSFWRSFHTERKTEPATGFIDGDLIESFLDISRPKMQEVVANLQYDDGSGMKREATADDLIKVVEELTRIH

SMILES | Dmax [1] [%] | remaining activity at up to 25 µM [2] [%] | DC50 [µM] | % degradation of WIZ (100-Amax) (100 minus Amax, at 25 uM, 293T cells) [%] | WIZ Amax (DMSO-normalized, curve-fitted percentage of WIZ-HiBit remaining at 25 uM, 293T cells) [%] | Dmax (HEK-293T, read-out: % degradation of WIZ (100-Amax), 100 minus Amax, 293T cells) [%] | remaining activity (HEK-293T, read-out: WIZ Amax, DMSO-normalized, curve-fitted percentage of WIZ-HiBit remaining at 25 uM, 293T cells) [%]
COc1ccccc1C(=O)N1CCC[C@@H]1COc1ccc2c(c1)CN(C1CCC(=O)NC1=O)C2=O (stereo partly drawn) [Compound I-83, 3-(5-(((R)-1-(2-methoxybenzoyl)pyrrolidin-2-yl)methoxy)-1-oxoisoindolin-2-yl)piperidine-2,6-dione] | 16.8 | 83.2 | > 25 | – | – | – | –
O=C1CCC(N2Cc3cc(OC[C@@H]4CCCCN4C(=O)c4cccc(N5CCCCC5)n4)ccc3C2=O)C(=O)N1 (stereo partly drawn) [Compound I-72av] | 24.3 | 75.7 | > 25 | – | – | – | –
O=C1CCC(N2Cc3cc(OC[C@@H]4CCCCN4C(=O)c4cccc(N5CCCC5=O)c4)ccc3C2=O)C(=O)N1 (stereo partly drawn) [Compound I-72hf] | 6.8 | 93.2 | > 25 | – | – | – | –
N#Cc1cc(CN2CCCC[C@@H]2COc2ccc3c(c2)CN(C2CCC(=O)NC2=O)C3=O)ccn1 (stereo partly drawn) [Compound I-50dn] | 21.2 | 78.8 | > 25 | – | – | – | –
O=C1CCC(N2Cc3cc(OC[C@@H]4CCCCN4C(=O)c4cccc(S(=O)(=O)O)c4)ccc3C2=O)C(=O)N1 (stereo partly drawn) [Compound I-72a] | 11.2 | 88.8 | > 25 | – | – | – | –
N#Cc1ccn2cc(CN3CCCC[C@H]3COc3ccc4c(c3)CN(C3CCC(=O)NC3=O)C4=O)nc2c1 (stereo partly drawn) [Compound I-50c] | 38.1 | 61.9 | > 25 | – | – | – | –
CCN1CCc2cccc(CN3CCCC[C@@H]3COc3ccc4c(c3)CN(C3CCC(=O)NC3=O)C4=O)c21 (stereo partly drawn) [Compound I-112, 3-(5-(((R)-1-((1-ethylindolin-7-yl)methyl)piperidin-2-yl)methoxy)-1-oxoisoindolin-2-yl)piperidine-2,6-dione] | – | – | 0.059 | – | – | 96.9 | 3.13
Cn1ccc(C(=O)N2CCCC[C@H]2COc2ccc3c(c2)CN(C2CCC(=O)NC2=O)C3=O)cc1=O (stereo partly drawn) [Compound I-72ao] | 8.3 | 91.7 | > 25 | – | – | – | –
COc1ccc(C(C)(C)C(=O)N2CCCC[C@H]2COc2ccc3c(c2)CN(C2CCC(=O)NC2=O)C3=O)cc1 (stereo partly drawn) [Compound I-72fz] | 9.1 | 90.9 | > 25 | – | – | – | –
O=C1CCC(N2Cc3cc(OC[C@@H]4CCCCN4C(=O)CN4CCCCC4)ccc3C2=O)C(=O)N1 (stereo partly drawn) [Compound I-72jq] | 11.7 | 88.3 | > 25 | – | – | – | –
CC(C)(C)OC(=O)NC1(CN2CCCC[C@H]2COc2ccc3c(c2)CN(C2CCC(=O)NC2=O)C3=O)CCCC1 (stereo partly drawn) [Compound I-50aq] | 15.4 | 84.6 | > 25 | – | – | – | –
COc1cc(OC)nc(C(=O)N2CCCC[C@H]2COc2ccc3c(c2)CN(C2CCC(=O)NC2=O)C3=O)n1 (stereo partly drawn) [Compound I-72is] | 0.9 | 99.1 | > 25 | – | – | – | –
CC(C)(C#N)c1cc(C(=O)N2CCCC[C@H]2COc2ccc3c(c2)CN(C2CCC(=O)NC2=O)C3=O)ccn1 (stereo partly drawn) [Compound I-72be] | 11.8 | 88.2 | > 25 | – | – | – | –

The next lines start with results.

Dmax [1] [%] | remaining activity at up to 25 µM [2] [%] | DC50 [µM] | % degradation of WIZ (100-Amax) (100 minus Amax, at 25 uM, 293T cells) [%] | WIZ Amax (DMSO-normalized, curve-fitted percentage of WIZ-HiBit remaining at 25 uM, 293T cells) [%] | SMILES | Dmax (HEK-293T, read-out: % degradation of WIZ (100-Amax), 100 minus Amax, 293T cells) [%] | remaining activity (HEK-293T, read-out: WIZ Amax, DMSO-normalized, curve-fitted percentage of WIZ-HiBit remaining at 25 uM, 293T cells) [%]
0 | 100 | > 25 | – | – | CC(C)n1nccc1C(=O)N1CCCC[C@H]1COc1ccc2c(c1)CN(C1CCC(=O)NC1=O)C2=O (stereo partly drawn) [Compound I-72ez] | – | –
24.5 | 75.5 | > 25 | – | – | N#Cc1cccc(Cn2cccc(CN3CCCC[C@H]3COc3ccc4c(c3)CN(C3CCC(=O)NC3=O)C4=O)c2=O)c1 (stereo partly drawn) [Compound I-50aw] | – | –
82.2 | 17.8 | 1.71 | – | – | O=C1CCC(N2Cc3cc(OC[C@H]4CCCCN4Cc4cn[nH]c4)ccc3C2=O)C(=O)N1 (stereo partly drawn) [Compound I-50an] | – | –
14.5 | 85.5 | > 25 | – | – | CC(C)Oc1cccc(C(=O)N2CCCC[C@H]2COc2ccc3c(c2)CN(C2CCC(=O)NC2=O)C3=O)c1 (stereo partly drawn) [Compound I-72ju] | – | –
21.1 | 78.9 | > 25 | – | – | CC(C)n1cc(C(=O)N2CCCC[C@H]2COc2ccc3c(c2)CN(C2CCC(=O)NC2=O)C3=O)cn1 (stereo partly drawn) [Compound I-72dg] | – | –
58.3 | 41.7 | 10.1 | – | – | CC1(c2ccc(C(=O)N3CCCC[C@H]3COc3ccc4c(c3)CN(C3CCC(=O)NC3=O)C4=O)cc2)COC1 (stereo partly drawn) [Compound I-72gc] | – | –
81 | 19 | 0.651 | – | – | CC(C)N1CCC(CN2CCCC[C@@H]2COc2ccc3c(c2)CN(C2CCC(=O)NC2=O)C3=O)CC1 (stereo partly drawn) [Compound I-50ea] | – | –
65.1 | 34.9 | 3.43 | – | – | Cc1csc(CN2CCCC[C@@H]2COc2ccc3c(c2)CN(C2CCC(=O)NC2=O)C3=O)n1 (stereo partly drawn) [Compound I-151] | – | –
82.8 | 17.1 | 0.032 | – | – | O=C1CCC(N2Cc3cc(OC[C@H]4CCCCN4CC4CC4)ccc3C2=O)C(=O)N1 (stereo partly drawn) [Compound I-214, 3-(5-(((R)-1-(cyclopropylmethyl)piperidin-2-yl)methoxy)-1-oxoisoindolin-2-yl)piperidine-2,6-dione] | – | –
– | – | 0.36 | 26.5 | 73.5 | CCN1C2CCC(C2)C1COc1ccc2c(c1)CN(C1CCC(=O)NC1=O)C2=O (single isomer, unassigned) [I-255 (Isomer 3), 3-(5-((endo-2-ethyl-2-azabicyclo[2.2.1]heptan-3-yl)methoxy)-1-oxoisoindolin-2-yl)piperidine-2,6-dione] | – | –
100 | 0 | 0.007 | – | – | Cn1nc(CN2CCCC[C@@H]2COc2ccc3c(c2)CN(C2CCC(=O)NC2=O)C3=O)cc1-c1ccccc1 (stereo partly drawn) [Compound I-50dm] | – | –
99.1 | 0.9 | 0.004 | – | – | O=C1CCC(N2Cc3cc(OC[C@H]4CCCCN4Cc4ccc(Cn5ccnc5)cc4)ccc3C2=O)C(=O)N1 (stereo partly drawn) [Compound I-50ek] | – | –
92.3 | 7.7 | 0.578 | – | – | Cc1nc[nH]c1CN1CCCC[C@H]1COc1ccc2c(c1)CN(C1CCC(=O)NC1=O)C2=O (stereo partly drawn) [Compound I-50ac] | – | –
57.9 | 42.1 | 7.39 | – | – | Cc1nn(-c2ccccc2)c(C)c1C(=O)N1CCCC[C@H]1COc1ccc2c(c1)CN(C1CCC(=O)NC1=O)C2=O (stereo partly drawn) [Compound I-72gs] | – | –
76.2 | 23.8 | 0.897 | – | – | O=C1CCC(N2Cc3cc(OC[C@@H]4CCCCN4Cc4ccnc(N5CCOCC5)c4)ccc3C2=O)C(=O)N1 (stereo partly drawn) [Compound I-50bn] | – | –
99.8 | 0.21 | 0.016 | – | – | CC(C)CN1CCN(c2ccccc2CN2CCCC[C@@H]2COc2ccc3c(c2)CN(C2CCC(=O)NC2=O)C3=O)CC1 (stereo partly drawn) [Compound I-107, 3-(5-(((R)-1-(2-(4-isobutylpiperazin-1-yl)benzyl)piperidin-2-yl)methoxy)-1-oxoisoindolin-2-yl)piperidine-2,6-dione] | – | –
56.9 | 43.1 | 11.4 | – | – | O=C1CCC(N2Cc3cc(OC[C@H]4CCCCN4Cc4cccnc4F)ccc3C2=O)C(=O)N1 (stereo partly drawn) [Compound I-149] | – | –
71.2 | 28.8 | 0.77 | – | – | O=C1CCC(N2Cc3cc(OC[C@H]4CCCCN4Cc4ccccc4OCC(=O)N4CCCCC4)ccc3C2=O)C(=O)N1 (stereo partly drawn) [Compound I-50dq] | – | –

Source: patent US11566022B2, “3-(5-methoxy-1-oxoisoindolin-2-yl)piperidine-2,6-dione derivatives and uses thereof” (NOVARTIS AG, priority 2019, dated 2023)
